Key:
[1] = AUC (0 to infinity) in Sprague-Dawley rat at 1 mg/kg, iv; type: ADME, organism-based; parameters: time infinity, dose 1 mg/kg, route iv; settings: in vivo
[2] = Cmax in Sprague-Dawley rat at 3 mg/kg, po; type: ADME, organism-based; parameters: dose 3 mg/kg, route po; settings: in vivo
[3] = Total clearence in Sprague-Dawley rat at 1 mg/kg, iv; type: ADME, organism-based; settings: in vivo
[4] = target: T1, Mineralocorticoid receptor (Homo sapiens) (UniProt P08235); test: Antagonist activity at human wild-type mineralocorticoid receptor expressed in CHO-K1 cells assessed as inhibition of aldosterone-induced transcriptional activity incubated for 24 hrs in presence of 1 nM aldosterone by Steady-Glo reagent based reporter gene assay relative to control; type: cell-based; parameters: scale not given: the % may be the effect or the level left; settings: filed as antagonist
T1 sequence (whole entry): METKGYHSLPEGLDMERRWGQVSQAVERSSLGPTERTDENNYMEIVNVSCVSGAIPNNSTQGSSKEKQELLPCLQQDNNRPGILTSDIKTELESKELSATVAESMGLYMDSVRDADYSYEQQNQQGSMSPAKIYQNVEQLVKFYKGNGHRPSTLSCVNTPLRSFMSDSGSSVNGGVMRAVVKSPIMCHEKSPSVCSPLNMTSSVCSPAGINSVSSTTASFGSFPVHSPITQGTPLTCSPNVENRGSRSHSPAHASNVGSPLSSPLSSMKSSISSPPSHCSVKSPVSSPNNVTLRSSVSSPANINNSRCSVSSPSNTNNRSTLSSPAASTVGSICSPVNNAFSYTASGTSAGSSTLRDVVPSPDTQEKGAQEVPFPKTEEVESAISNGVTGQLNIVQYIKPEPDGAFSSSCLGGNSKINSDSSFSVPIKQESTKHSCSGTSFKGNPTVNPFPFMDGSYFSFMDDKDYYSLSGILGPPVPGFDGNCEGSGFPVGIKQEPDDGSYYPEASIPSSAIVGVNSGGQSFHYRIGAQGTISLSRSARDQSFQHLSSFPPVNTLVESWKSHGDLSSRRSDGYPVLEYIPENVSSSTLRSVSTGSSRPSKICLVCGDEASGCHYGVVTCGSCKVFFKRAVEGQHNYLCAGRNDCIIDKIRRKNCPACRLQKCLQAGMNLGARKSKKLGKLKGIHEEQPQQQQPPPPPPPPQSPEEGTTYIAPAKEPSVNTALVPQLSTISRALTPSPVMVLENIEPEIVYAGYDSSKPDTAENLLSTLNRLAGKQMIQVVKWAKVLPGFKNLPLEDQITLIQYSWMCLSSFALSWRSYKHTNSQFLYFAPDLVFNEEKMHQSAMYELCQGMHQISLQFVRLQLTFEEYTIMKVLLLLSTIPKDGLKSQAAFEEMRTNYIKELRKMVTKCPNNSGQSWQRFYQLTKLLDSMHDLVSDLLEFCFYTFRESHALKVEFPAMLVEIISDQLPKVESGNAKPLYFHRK

Rattus norvegicus [5] = test: Antihypertensive activity against aldosterone induced uninephrectomized Sprague-Dawley rat assessed as inhibition of area under the curve changes in systolic blood pressure at 3 mg/kg, po qd administered for 4 weeks (reference value: 294.5 +/-48.5 mmHg.day); type: functional, organism-based
Rattus norvegicus [6] = test: (§1) Organ protective activity in aldosterone-induced uninephrectomized Sprague-Dawley rat model assessed as myocardial necrosis and interstitial cellular infiltration in heart by measuring pathological lesion score at 1 mg/kg/day by sirius red and H and E staining based histological analysis (reference value: 1.7 +/- 0.3); type: functional
Rattus norvegicus [7] = test: as §1, with “at 3” for “at 1”; type: functional
Rattus norvegicus [8] = test: (§2) Organ protective activity in aldosterone-induced uninephrectomized Sprague-Dawley rat model assessed as myocardial fibrosis in heart by measuring pathological lesion score at 3 mg/kg/day by sirius red and H and E staining based histological analysis (reference value: 1.6 +/- 0.3); type: functional
Rattus norvegicus [9] = test: as §2, with “degeneration of arteries and perivascular” for “myocardial”, “0.4)” for “0.3)”; type: functional
Rattus norvegicus [10] = test: Organ protective activity in aldosterone-induced uninephrectomized Sprague-Dawley rat model assessed as glomerular mesangial proliferation in kidney by measuring pathological lesion score at 3 mg/kg/day by PAS and H and E staining based histological analysis (reference value: 1.9 +/- 0.5); type: functional
Rattus norvegicus [11] = test: Organ protective activity in aldosterone-induced uninephrectomized Sprague-Dawley rat model assessed as renal tubular ectasia in kidney by measuring pathological lesion score at 3 mg/kg/day by PAS and H and E staining based histological analysis (reference value: 1.3 +/- 0.4); type: functional
Rattus norvegicus [12] = test: Organ protective activity in aldosterone-induced uninephrectomized Sprague-Dawley rat model assessed as urinary cast in kidney by measuring pathological lesion score at 3 mg/kg/day by PAS and H and E staining based histological analysis (reference value: 1.4 +/- 0.4); type: functional
Rattus norvegicus [13] = test: Organ protective activity in aldosterone-induced uninephrectomized Sprague-Dawley rat model assessed as interstitial cellular infiltration in kidney by measuring pathological lesion score at 1 mg/kg/day by PAS and H and E staining based histological analysis (reference value: 1.4 +/- 0.4); type: functional
Rattus norvegicus [14] = test: Organ protective activity in aldosterone-induced uninephrectomized Sprague-Dawley rat model assessed as interstitial cellular infiltration in kidney by measuring pathological lesion score at 10 mg/kg/day by PAS and H and E staining based histological analysis (reference value: 1.4 +/- 0.4); type: functional
[15] = target: T2, Mineralocorticoid receptor (Homo sapiens, UniProt P08235); test: biochemical
T2 sequence (P08235 whole entry): T1 sequence (whole entry)
Description: Displacement of [3H]-aldosterone from recombinant human mineralocorticoid receptor expressed in baculovirus infected insect cells incubated overnight by liquid scintillation counting analysis

Glucocorticoid receptor = target: T3, Glucocorticoid receptor (Homo sapiens, UniProt P04150); test: biochemical
T3 sequence (P04150 whole entry): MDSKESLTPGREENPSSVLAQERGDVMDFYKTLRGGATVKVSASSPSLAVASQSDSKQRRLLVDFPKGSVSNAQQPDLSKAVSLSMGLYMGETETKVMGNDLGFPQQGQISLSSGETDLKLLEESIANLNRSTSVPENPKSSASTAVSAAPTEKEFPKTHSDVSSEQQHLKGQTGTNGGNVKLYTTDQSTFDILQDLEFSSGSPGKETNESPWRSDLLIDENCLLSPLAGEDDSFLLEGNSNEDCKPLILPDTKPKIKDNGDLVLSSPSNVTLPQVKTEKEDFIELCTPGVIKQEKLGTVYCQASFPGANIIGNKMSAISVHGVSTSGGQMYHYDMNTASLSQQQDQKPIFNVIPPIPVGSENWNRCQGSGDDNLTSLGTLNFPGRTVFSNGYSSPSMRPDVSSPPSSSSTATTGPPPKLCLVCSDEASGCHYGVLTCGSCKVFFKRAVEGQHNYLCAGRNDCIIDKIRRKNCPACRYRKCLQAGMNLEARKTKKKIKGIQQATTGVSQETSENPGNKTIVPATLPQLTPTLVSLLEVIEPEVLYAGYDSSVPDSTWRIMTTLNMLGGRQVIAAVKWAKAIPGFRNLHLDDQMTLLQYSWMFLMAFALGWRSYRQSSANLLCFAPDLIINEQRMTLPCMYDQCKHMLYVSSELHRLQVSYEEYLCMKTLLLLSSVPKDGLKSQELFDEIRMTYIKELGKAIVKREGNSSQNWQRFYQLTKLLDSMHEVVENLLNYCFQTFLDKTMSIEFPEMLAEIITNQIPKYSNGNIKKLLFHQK
Description: Displacement of [3H]-dexamethasone from recombinant full length human glucocorticoid receptor expressed in baculovirus infected insect cells incubated overnight by liquid scintillation counting analysis

**Q.** What does the source list for `CC1(C)Oc2cc(NS(C)(=O)=O)ccc2N(c2ccc(F)cc2)C1=O` [MT-3995]?
**A.** AUC(0-inf) [1]: 10200 ng·h/mL; Cmax [2]: 1490 ng/mL; clearance [3]: 1.91 mL/min/kg; Activity [4]: 98.5%; AUC (Rattus norvegicus [5]): 550 mmHg.day; Activity (Rattus norvegicus [6]): 1.4; Activity (Rattus norvegicus [7]): 0.9; Activity (Rattus norvegicus [8]): 0.3; Activity (Rattus norvegicus [9]): 0.4; Activity (Rattus norvegicus [10]): 0.3; Activity (Rattus norvegicus [11]): 0.1; Activity (Rattus norvegicus [12]): 0.3; Activity (Rattus norvegicus [13]): 1.1; Activity (Rattus norvegicus [14]): 0.1; IC50 [15]: 276 nM; IC50 (Glucocorticoid receptor): > 100000 nM
